{"source": "patent US7625948B2", "about": "“Ester compound and medicinal use thereof” (Japan Tobacco Inc., priority 2002, dated 2009)", "key": {"HepG2 cells": {"tested_on": "HepG2 cells", "assay": "Test Example 2: inhibition of apolipoprotein B secretion from HepG2 cells, ELISA (also used for metabolites in Test Example 8)", "type": "cell-based", "conditions": "Homo sapiens", "in_short": "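HepG2 cells cultured 24 h, then exposed 24 h to compounds or metabolites in medium with 0.5% DMSO. Secreted apo B in supernatant quantified by sandwich ELISA (HRP, ABTS, 405 nm) against purified human apo B standard; % inhibition vs DMSO group, IC50 derived.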"}, "Syrian hamsters [1]": {"tested_on": "Syrian hamsters", "assay": "Test Example 3: olive oil-loading test (inhibition of fat absorption, plasma TG)", "type": "in vivo", "conditions": "Mesocricetus auratus, po; 3 mg/kg p.o.; plasma TG 4 hours after olive oil; read-out: Test Example 3 Inhibition of fat absorption after olive oil-loading in Hamster Inhibition rate (%)", "description": "Syrian hamsters (9-11 weeks of age) under non-fasted conditions were used in the test. Blood was collected previously from orbital venous plexus, and a sample was suspended in 0.5% methyl cellulose (vehicle) and the suspension was forced to be administered orally to the hamsters at a dose of 0.3, 1, 3 or 10 mg/2 mL/kg. Only vehicle in the same volume was administered to the control group. Olive oil (2 mL/kg) was forced to be administered orally 30 minutes after the administration of the sample, and blood was collected from orbital venous plexus 4 hours later. Plasma was recovered from the blood, and the amount of triglyceride (TG) in the plasma was determined by automatic analyzer (Hitachi Co.). The data was expressed in terms of ΔTG(mg/dL)=the value at 4th hr minus the value before administration. Inhibition rate (%) was calculated from the data obtained on the basis of the following equation.\nInhibition rate (%)=100×(1 minus ΔTG of sample group/ΔTG of control group)."}, "Syrian hamsters [2]": {"tested_on": "Syrian hamsters", "assay": "Test Example 3: olive oil-loading test (inhibition of fat absorption, plasma TG)", "type": "in vivo", "conditions": "Mesocricetus auratus, po; 100 mg/kg p.o.; plasma TG 4 hours after olive oil; read-out: Test Example 3 Inhibition of fat absorption after olive oil-loading in Hamster Inhibition rate (%)"}, "[3]": {"molecular_target": "T1, Microsomal triglyceride transfer protein (MTP) from bovine liver (Bos taurus, UniProt P55156)", "T1 construct": "from tissue; host or cells: bovine liver", "T1 sequence (P55156 12-887)": "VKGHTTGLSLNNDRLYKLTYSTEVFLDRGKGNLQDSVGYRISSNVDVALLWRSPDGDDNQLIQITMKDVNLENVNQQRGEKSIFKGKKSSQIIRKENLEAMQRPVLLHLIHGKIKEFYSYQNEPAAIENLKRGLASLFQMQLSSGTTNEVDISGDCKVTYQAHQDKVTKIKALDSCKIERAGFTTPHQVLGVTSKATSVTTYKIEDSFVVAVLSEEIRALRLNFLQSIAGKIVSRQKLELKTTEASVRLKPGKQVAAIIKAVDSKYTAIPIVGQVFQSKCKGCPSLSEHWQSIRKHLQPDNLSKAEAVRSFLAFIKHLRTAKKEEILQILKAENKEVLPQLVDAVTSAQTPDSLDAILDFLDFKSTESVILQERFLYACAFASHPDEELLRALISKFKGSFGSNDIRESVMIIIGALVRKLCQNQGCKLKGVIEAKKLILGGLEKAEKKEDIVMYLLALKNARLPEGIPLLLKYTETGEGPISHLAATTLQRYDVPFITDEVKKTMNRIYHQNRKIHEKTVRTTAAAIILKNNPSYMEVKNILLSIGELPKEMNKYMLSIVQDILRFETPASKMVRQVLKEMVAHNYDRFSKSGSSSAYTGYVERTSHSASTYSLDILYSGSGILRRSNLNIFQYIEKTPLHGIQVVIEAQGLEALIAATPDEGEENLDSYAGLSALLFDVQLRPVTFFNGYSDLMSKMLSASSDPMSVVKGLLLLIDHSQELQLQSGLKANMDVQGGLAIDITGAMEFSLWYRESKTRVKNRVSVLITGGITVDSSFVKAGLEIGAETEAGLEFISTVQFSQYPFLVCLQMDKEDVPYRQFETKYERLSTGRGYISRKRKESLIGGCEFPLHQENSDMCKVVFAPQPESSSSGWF", "T1 sequence (P05307 21-510 partner)": "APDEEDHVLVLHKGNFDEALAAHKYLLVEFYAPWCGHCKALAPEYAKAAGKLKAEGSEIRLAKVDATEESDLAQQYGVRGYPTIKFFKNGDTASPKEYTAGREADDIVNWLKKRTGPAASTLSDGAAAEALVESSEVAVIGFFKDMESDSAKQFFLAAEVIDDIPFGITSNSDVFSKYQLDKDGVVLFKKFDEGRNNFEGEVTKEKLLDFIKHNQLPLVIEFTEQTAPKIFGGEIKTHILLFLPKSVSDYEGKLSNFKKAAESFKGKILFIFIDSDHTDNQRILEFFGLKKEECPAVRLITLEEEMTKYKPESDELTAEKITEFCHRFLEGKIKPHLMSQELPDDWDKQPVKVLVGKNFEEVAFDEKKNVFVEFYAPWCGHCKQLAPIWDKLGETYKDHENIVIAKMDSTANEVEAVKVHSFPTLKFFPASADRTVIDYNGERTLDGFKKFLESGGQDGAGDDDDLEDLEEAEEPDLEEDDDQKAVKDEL", "assay": "Test Example 1: inhibition of interliposomal triglyceride (TG) transfer activity by MTP (also used for metabolites in Test Example 8)", "type": "biochemical", "in_short": "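Partially purified bovine liver MTP (DEAE chromatography) incubated 1 h at 37 °C, pH 7.4, with ^14C-triolein-labelled donor SUVs and unlabelled acceptor SUVs plus compound in DMSO. Acceptor radioactivity, blank-corrected, gave % inhibition versus DMSO; IC50 derived. Metabolites tested likewise.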"}, "[4]": {"conditions": "24 hours, apo B in supernatant by ELISA, read-out: Test Example 2 Inhibition of apo B secretion IC50"}, "[5]": {"conditions": "MTP-mediated 14C-triolein transfer between liposomes, 37° C., one hour, read-out: Test Example 1 MTP inhibition IC50"}}, "note": "Like-named read-outs stand apart in the source and are kept apart here."}
{"compound": "CCOC(=O)C(COC(=O)Cc1ccc(NC(=O)c2ccc(C)cc2-c2ccc(C(F)(F)F)cc2)c(C(=O)N(C)C)c1)(C(=O)OCC)c1ccccc1", "note": "[Example 2-48]", "values": [{"measurement": "IC50", "setting": "HepG2 cells; [4]", "value": 0.36, "unit": "nM"}, {"measurement": "inhibition in vivo at 3 mg/kg", "setting": "Syrian hamsters [1]", "value": 87, "unit": "%"}]}
{"compound": "CCNC(=O)C(CCOC(=O)Cc1cccc(NC(=O)c2ccccc2-c2ccc(C(F)(F)F)cc2)c1C)(C(=O)NCC)c1ccccc1", "note": "[Example 5-9]", "values": [{"measurement": "IC50", "setting": "HepG2 cells; [4]", "value": 28, "unit": "nM"}, {"measurement": "inhibition in vivo at 100 mg/kg", "setting": "Syrian hamsters [2]", "value": 78, "unit": "%"}, {"measurement": "IC50", "setting": "[3]; [5]", "value": 4, "unit": "nM"}]}
{"compound": "CCOC(=O)C(COC(=O)Cc1ccc(NC(=O)c2ccccc2-c2ccc(C(F)(F)F)cc2)c(C)c1)(C(=O)OCC)c1ccccc1", "note": "[Example 1-3, 2-(2-{3-Methyl-4-[(4′-trifluoromethylbiphenyl-2-carbonyl)amino]phenyl}acetoxymethyl)-2-phenylmalonic acid diethyl ester]", "values": [{"measurement": "IC50", "setting": "HepG2 cells; [4]", "value": 5.75, "unit": "nM"}, {"measurement": "inhibition in vivo at 100 mg/kg", "setting": "Syrian hamsters [2]", "value": 65, "unit": "%"}, {"measurement": "IC50", "setting": "[3]; [5]", "value": 4.7, "unit": "nM"}]}
{"compound": "CCNC(=O)C(COC(=O)Cc1ccc(NC(=O)c2ccccc2-c2ccc(Cl)cc2)cc1)(C(=O)NCC)c1ccccc1", "note": "[Example 1-70]", "values": [{"measurement": "IC50", "setting": "HepG2 cells; [4]", "value": 270, "unit": "nM"}, {"measurement": "IC50", "setting": "[3]; [5]", "value": 1.6, "unit": "nM"}]}
{"compound": "CCNC(=O)C(COC(=O)Cc1ccc(NC(=O)c2ccccc2-c2ccc(C(F)(F)F)cc2)c(C)c1)(C(=O)NCC)c1ccccc1", "note": "[Example 1-45]", "values": [{"measurement": "IC50", "setting": "HepG2 cells; [4]", "value": 0.46, "unit": "nM"}, {"measurement": "inhibition in vivo at 100 mg/kg", "setting": "Syrian hamsters [2]", "value": 71, "unit": "%"}, {"measurement": "IC50", "setting": "[3]; [5]", "value": 0.39, "unit": "nM"}]}
{"compound": "CCOC(=O)C(COC(=O)Cc1ccc(NC(=O)c2ccccc2-c2ccc(C(F)(F)F)cc2)cc1)(C(=O)OCC)C1CCCC1", "note": "[Example 1-14]", "values": [{"measurement": "IC50", "setting": "HepG2 cells; [4]", "value": 55, "unit": "nM"}, {"measurement": "IC50", "setting": "[3]; [5]", "value": 82, "unit": "nM"}]}
{"compound": "CC(C)CNC(=O)C(COC(=O)Cc1ccc(NC(=O)c2ccccc2-c2ccc(C(F)(F)F)cc2)cc1)(C(=O)NCC(C)C)c1ccccc1", "note": "[Example 1-66]", "values": [{"measurement": "IC50", "setting": "HepG2 cells; [4]", "value": 9.3, "unit": "nM"}, {"measurement": "inhibition in vivo at 100 mg/kg", "setting": "Syrian hamsters [2]", "value": 52, "unit": "%"}, {"measurement": "IC50", "setting": "[3]; [5]", "value": 16, "unit": "nM"}]}
{"compound": "CN(C)C(=O)c1cc(CC(=O)O)ccc1NC(=O)c1ccccc1-c1ccc(C(F)(F)F)cc1", "values": [{"measurement": "IC50", "setting": "HepG2 cells; main metabolites of the compounds (Test Example 8), read-out: Inhibition of apo B secretion IC50", "value": "> 10000", "unit": "nM"}, {"measurement": "IC50", "setting": "[3]; main metabolites of the compounds (Test Example 8), read-out: MTP inhibition IC50", "value": "> 10000", "unit": "nM"}]}
{"compound": "O=C(OCCC1(C(=O)NCC(F)(F)F)c2ccccc2-c2ccccc21)c1ccc(NC(=O)c2ccccc2-c2ccc(C(F)(F)F)cc2)cc1", "note": "[Example 6, 4-[(4′-Trifluoromethylbiphenyl-2-carbonyl)amino]benzoic acid 2-[9-(2,2,2-trifluoroethylcarbamoyl)-9H-fluoren-9-yl]ethyl ester]", "values": [{"measurement": "IC50", "setting": "HepG2 cells; [4]", "value": 58.3, "unit": "nM"}, {"measurement": "IC50", "setting": "[3]; [5]", "value": 3.47, "unit": "nM"}]}
{"compound": "CCOC(=O)C(COC(=O)Cc1ccc(NC(=O)c2ccccc2-c2ccc(C(F)(F)F)cc2)cc1)(Cc1ccccc1)C(=O)OCC", "note": "[Example 1-26]", "values": [{"measurement": "IC50", "setting": "HepG2 cells; [4]", "value": 620, "unit": "nM"}, {"measurement": "IC50", "setting": "[3]; [5]", "value": 630, "unit": "nM"}]}
{"compound": "CCNC(=O)C(COC(=O)Cc1ccc(NC(=O)c2ccccc2C2CCCCC2)cc1)(C(=O)NCC)c1ccccc1", "note": "[Example 1-69]", "values": [{"measurement": "IC50", "setting": "HepG2 cells; [4]", "value": 90, "unit": "nM"}, {"measurement": "IC50", "setting": "[3]; [5]", "value": 9.1, "unit": "nM"}]}
{"compound": "O=C(Cc1ccc(NC(=O)c2ccccc2-c2ccc(C(F)(F)F)cc2)cc1)OCC(C(=O)OC1CCCCC1)(C(=O)OC1CCCCC1)c1ccccc1", "note": "[Example 1-22]", "values": [{"measurement": "IC50", "setting": "HepG2 cells; [4]", "value": 180, "unit": "nM"}, {"measurement": "IC50", "setting": "[3]; [5]", "value": 66.5, "unit": "nM"}]}
{"compound": "CCNC(=O)C(CCOC(=O)Cc1ccc(NC(=O)c2ccccc2-c2ccc(C(F)(F)F)cc2)c(C(=O)N(C)CC)c1)(C(=O)NCC)c1ccccc1", "note": "[Example 2-15]", "values": [{"measurement": "IC50", "setting": "HepG2 cells; [4]", "value": 0.53, "unit": "nM"}, {"measurement": "inhibition in vivo at 3 mg/kg", "setting": "Syrian hamsters [1]", "value": 81, "unit": "%"}]}
